Columns and labels:
Cutibacterium acnes [1] = assay: Minimum Inhibitory Concentration of benzoyl peroxide on C. acnes; assay type: cell-based; settings: OTC product containing 10% BPO used; FIG. 4
From the text: An OTC product containing 10% BPO was used in this experiment.
The advantage of SmartArrow is that it will deliver the active ingredients to where the bacteria reside. As a result, a much lower dosage of bioactive can be loaded in SmartArrow to achieve high killing of the bacteria compared to untargeted liposomes. As little as 0.002% BPO can achieve total killing of C. acnes (FIG. 4). Considering the BPO concentrations found in the retail market ranges from 2.5%-10%, which is ˜1000-fold higher than what is needed to kill the bacteria, it is not surprising to find most users of these retail products routinely suffer several side effects such as dry peeling skin. By using the SmartArrow approach, we can conservatively load 0.02% BPO into a liposome, which is 100× less than the retail products, to achieve total bacterial killing and reducing the side effects to a minimum.

[2] = test system: Pseudomonas aeruginosa strain PA14; assay: Confocal microscopy binding of EGFP-tagged lysin to P. aeruginosa; settings: 2.5 mg/ml; FIG. 1 F1-3
Description: (§1) To check the binding spectrum of the engineered lysin SmartNovaC, 2.5 mg/ml of SmartNovaC was applied against four C. acnes strains, Enterococcus faecalis strain OG1 RF, Staphylococcus epidermidis strain PCI1200 and Pseudomonas aeruginosa strain PA14. Since SmartNovaC was cloned in a plasmid that would co-express the EGFP tag, the fluorescent lysin can be visualized using confocal microscopy.

Cutibacterium acnes [3] = assay: Confocal microscopy binding of EGFP-tagged lysin to C. acnes; settings: 2.5 mg/ml; four C. acnes strains (6919, 11828, 11827, HC038-PAI); FIG. 1
Description: as §1
To further examine whether SmartNovaC is the only lysin that binds specifically to C. acnes, the binding of NovaC and another lysin DukeC2Rap that were synthesized with EGFP co-expressed were tested. DukeC2Rap lysin was obtained as CBD of Doucette lysin targeting Propionibacterium freudenreichii species, which is from the same genus as C. acnes. The nucleotide and amino acid sequences of the DukeC2Rap are provided below.
NovaC and DukeC2Rap at concentrations of 2.5 mg/ml and 1.3 mg/ml, respectively, were tested for binding against two C. acnes strains.

[4] = test system: Staphylococcus epidermidis strain PCI1200; assay: Confocal microscopy binding of EGFP-tagged lysin to S. epidermidis; settings: 2.5 mg/ml; FIG. 1 G1-3
Description: as §1

[5] = test system: Enterococcus faecalis strain OG1 RF; assay: Confocal microscopy binding of EGFP-tagged lysin to E. faecalis; settings: 2.5 mg/ml; FIG. 1 E1-3
Description: as §1

| Compound | BPO concentration achieving total killing of C. acnes (MIC) (Cutibacterium acnes [1]) | binding to P. aeruginosa PA14 [2] | binding to C. acnes (green fluorescence) (Cutibacterium acnes [3]) | binding to S. epidermidis [4] | binding to E. faecalis OG1RF [5] |
| --- | --- | --- | --- | --- | --- |
| O=C(OOC(=O)c1ccccc1)c1ccccc1 [BPO, benzoyl peroxide] | 0.002% | – | – | – | – |
| SmartNovaC (GSVNKLHHDVGVVQVQNGDLSKRVDALSWV) | – | could not bind | specific binding | could not bind | could not bind |

Source: patent US20250090461A1, “CELL-WALL BINDING PROTEIN SPECIFICALLY TARGETING CUTIBACTERIUM ACNES” (MASSACHUSETTS INSTITUTE OF TECHNOLOGY, priority 2022, published 2025)
